Patent US20170304169A1, “USE OF A COSMETIC COMPOSITION COMPRISING 10-HYDROXYSTEARIC ACID” (DSM IP ASSETS B.V., priority 2014, published 2017)

How the values were obtained:
Assay type in all cases: cell-based
Collagen 1 = Collagen 1 synthesis in normal human fibroblasts (immunofluorescence, high content imaging); conditions: 48 h, primary human fibroblasts; for collagen 1 induction (in words): increasing amounts of compound
Protocol: (§1) Human dermal fibroblasts isolated from a biopsy of a donor (Fb-D) were maintained in Dulbecco's modified Eagle's medium high glucose (DMEM) containing 10% fetal calf serum (FCS) and 1% penicillin/streptomycin (P/S). Cells were cultivated at 37° C. in a humidified 5% CO2-air atmosphere.
Human dermal fibroblasts were pre-cultured in DMEM 10% FCS 1% P/S for 24 h before being starved in DMEM low glucose containing 0.2% FCS and 1% P/S for 2.5 days. Starvation medium was then replaced and solubilized compounds were added and incubated for 48 h. After compound incubation cells were fixed in DPBS containing 4% formaldehyde for 15 min and permeabilized with DPBS 0.1% Triton-X100 for 90 sec. Collagen 1 was detected using mouse anti human collagen 1 antibody and the first antibody was detected with AlexaFluor 488 conjugated goat anti-mouse IgG. We counterstained nuclei with DAPI. Stained cells were analysed with the Thermo Fisher High Content Imaging System. There were acquired 49 pictures per well with a 10× objective and images were subsequently analysed using the “CellHealthProfiling” bioapplication v4. Collagen 1 was measured in a defined region around the nucleus and the fluorescence intensity values were normalized to cell count.
Following a pre-culture period, primary human fibroblasts were incubated for 48 h with increasing amounts of compound. Cells were then fixed and collagen 1 protein level was assessed by immunofluorescence. The experiment was repeated twice. After starvation fibroblasts were incubated for 48 h with increasing amounts of compound. TGF-β1 serves as positive control. Values given are fold collagen 1 induction compared with control cells. […] Collagen 1 induction reached 2.2 fold induction when 10-HSA was used at 5 μM.

[1] = system: Human skin from abdominal plastic surgery; assay: Skin viability (MTT) in human skin organ culture; conditions: topical, 0.1, 1 and 10 mg/ml, day 6, MTT
Protocol: (§2) Human skin from abdominal plastic surgery has been used (donor[…]). Informed consent has been obtained. The skin phototype has been assayed with a spectro-colorimeter and classified as “BROWN” (ITA° angle=9.3°) (pigmentation scale: very light<light<intermediate<tanned<brown<dark) (Del Bino et al., Pigment Cell Research, 19. 2006).
(§3) The skin samples have been cut in pieces of approximately 8×3 mm (ø×thickness) and cultured up to day 6. Fourteen skin specimens have been used for each treatment. Two skin samples have been cultured to perform the skin viability test, six to perform the skin pigmentation and the collagen analyses and six for the SBC test.
Skin samples have been cultured in an air-liquid interface in a perforated ring of stainless steel in contact with culture medium (modified Williams' E medium) up to day 6. The culture medium has been renewed every three days (i.e. day 0-3).
Both the test samples and the controls have been applied topically and renewed daily. […]
After 6 days of incubation two skin biopsies have been weighed and, in case, reduced in the dermal portion, in order to have approximately the same weight for all of them. […] Subsequently the blue crystals have been solubilized and the color intensity, that is directly proportional to skin vitality, has been measured with a plate reader at a wavelength of 570 nm. […]

Collagen 3 = Collagen 3 immunostaining in human skin organ culture; conditions: topical, human skin explants
Protocol: as §2, §3
Skin samples have been cultured in an air-liquid interface in a perforated ring of stainless steel in contact with culture medium (modified Williams' E medium) up to day 6. […]
Skin sections have been immune-stained with the selected antibody. The amount of the antigen present in each slide has been evaluated by estimating the intensity and the distribution of the red within a selected area of the dermis using Image J (NIH-USA). […]
All quantitative data have been summarized in terms of the mean score for each treatment. […] Differences between groups were evaluated by One-way anova with permutation test followed by pairwise post-hoc comparisons—Dunnett's permutation test and pairwise post hoc comparisons—Tukey's HSD permutation tests.

p53 = p53 detection and quantification in UVB-irradiated human skin organ culture; conditions: 0.1 mg/ml, UVB (1 J/cm2), human skin explants
Protocol: Cell culture was performed as in example 12 above.
Skin sections have been stained with the antibody for p53 (Abcam, #ab7757). The p53 positive cells have been counted and the obtained value have been divided upon the area covered by epidermis. Two slides of each skin sample have been processed by image acquisition and related analysis (i.e. 12 images for each test treatment).
All quantitative data have been summarized in terms of the mean score for each treatment. The measures of variation as standard deviation and standard error of mean (SEM) have been applied to the original scores. Differences between groups were evaluated by One-way anova with permutation test followed by pairwise post-hoc comparisons—Dunnett's permutation test and pairwise post hoc comparisons—Tukey's HSD permutation tests.

MMP-1 = MMP-1 expression by RT-qPCR in UVB-irradiated human skin organ culture; conditions: UVB (1 J/cm2), human skin explants
Protocol: Human skin from abdominal plastic surgery has been used (donor). Informed consent has been obtained. The skin phototype has been assayed with a spectro-colorimeter and classified as “LIGHT” (ITA° angle=50°) (pigmentation scale: very light<light<intermediate<tanned<brown<dark) (Del Bino et al., Pigment Cell Research, 19. 2006).
The skin samples have been cut in pieces of 8×3 mm (ø×thickness) and cultured up to day 2. Two skin samples for each treatment have been cultured to perform the MMP-1 analysis.
Skin samples have been cultured in an air-liquid interface in a perforated ring of stainless steel in contact with culture medium (modified Williams' E medium) up to day 2. The culture medium has been renewed every three days (i.e. day 0-3).
Both the test samples and the controls have been applied topically, renewed 1 hour prior of UVB irradiation. Right before the irradiation the treatments have been gently yet carefully removed from the skin samples. […]
For RT-qPCR analysis, total RNA have been extracted from full thickness skin using RNAeasy mini kit for fibrous tissues (Qiagen) following manufacturer's instructions. After quantification, 400 ng of total RNA have been retro-transcribed using random hexamers and Superscript III (Invitrogen). […]

Type III collagen = assay: Collagen 3 synthesis in normal human fibroblasts (immunofluorescence, ArrayScan); conditions: 48 h, human dermal fibroblasts
Protocol: Human dermal fibroblasts obtained from adult skin (donor) were seeded into 96-well plates (4000 cells/well) and cultured in Dulbecco's Modified Eagle Medium (DMEM) with 10% fetal calf serum (FCS) and 1% Penicillin/Streptomycin (Life Technologies, Lucerne, Switzerland) at 37° C. with 5% CO2 for 24 h. After medium was changed with DMEM Low Glucose containing 0.2% FCS and 1% Pen/Strep, the cells were incubated for another 2.5 days. Then, starvation medium was replaced with fresh medium containing the test compounds. After 48 h incubation the cells were fixed in Dulbecco's Phosphate-Buffered Saline (DPBS) containing 4% formaldehyde (Life Technologies, Lucerne, Switzerland) for 15 min and permeabilized with 0.1% Triton-X100 in DPBS for 90 sec.
Collagen 3 was detected using rabbit anti-human Type III collagen (BioTrend, Cologne, Germany), followed by the AlexaFluor 488 conjugated secondary IgG antibody (goat anti-rabbit IgG, Life Technologies, Lucerne, Switzerland). […]
Stained cells were analysed with the ArrayScan VTI HCS Reader (Thermo Fisher Scientific, Waltham, Mass., USA). The total of 49 pictures per well was acquired with a 10× objective and images were subsequently analysed using the “CellHealthProfiling” bioapplication v4. Collagen was measured in a defined region around the nucleus and the fluorescence intensity values were normalized to the cell count. […]

Human dermal fibroblasts = assay: Cytotoxicity measurement, MTT assay in human dermal fibroblasts; conditions: normal human fibroblasts, 48 h
Protocol: as §1
Cytotoxicity was measured using the MTT assay according to the manufacturer's instructions. In brief: Fibroblasts (4000 cells/well, in 96-well cell culture plates from Nunc) were pre-cultured in DMEM 10% FCS 1% Penicillin/Streptomycin (P/S) for 24 h before being starved in DMEM low glucose containing 0.2% FCS and 1% P/S for 2.5 days. Starvation medium was then replaced and solubilized compounds were added and incubated for 48 h. Subsequently 10 μl MTT labelling reagent were added to each well (final concentration 0.5 mg/ml) and the microtiter plate was incubated for 4 h (37° C., 5% CO2). After addition of 100 μl solubilization solution into each well, the plate was allowed to stand overnight in the incubator (37° C., 5% CO2). The absorbance (OD) was measured in an absorbance plate reader at 550 nm.
Normal human fibroblasts treated with compounds for 48 h were assessed for viability using the MTT assay. Control values without compound were set to 100% viability.

For `CCCCCCCCC(O)CCCCCCCCC(=O)O` (centres unmarked) [10-HSA, 10-hydroxystearic acid], the “fold collagen 1 induction compared with control cells” value (Collagen 1; 5 μM) was 2.2 fold, the “collagen 1 induction (in words)” value (Collagen 1) was “dose dependent induction of collagen 1” and the skin viability [1] was “did not affect skin viability”. For the same molecule, the “increase in expression of collagen 3” value (Collagen 3; 0.1 mg/ml) was “+49%”, the “increase in expression of collagen 3” value (Collagen 3; 1 mg/ml) was “+57%” and the “p53 UV-induced stimulation vs DMSO UV” value (p53) was −46%. For the same molecule, the “MMP-1 expression in comparison to vehicle (DMSO), in words” value (MMP-1) was “significantly and considerably reduced the expression of MMP-1”, the “increase in type III collagen compared with medium treated cells” value (Type III collagen; 5 μM) was 244% and the “type III collagen synthesis (in words)” value (Type III collagen; p<0.01 relative to medium control) was “significantly induced type III collagen synthesis in a dose-dependent manner”. The “cytotoxic effect (reduction of cell survival to less than 80% compared to control cells)” value (Human dermal fibroblasts) was “did not show any cytotoxic effect”.

In the case of `CCCCCCCCCCCCCCCCCC(=O)O` [stearic acid], the “collagen 1 induction (in words)” value (Collagen 1) is reported as “did not induced collagen 1 expression”.
